In data set [1] the target is Cholinesterase (Homo sapiens, UniProt P06276).
Data set [2] concerns the target T1, Acetylcholinesterase (Homo sapiens, UniProt P22303).
The nature of data set [3]: Metal chelating activity against Fe3+ ions assessed as reduction in intrinsic fluorescence of compound at 50 uM incubated for 30 mins using FeCl3 by fluorescence spectrophotometry.
Data set [4] can be described thus: Metal chelating activity against Fe2+ ions assessed as reduction in intrinsic fluorescence of compound at 50 uM incubated for 30 mins using FeSO4 by fluorescence spectrophotometry.
A short description of data set [5]: Metal chelating activity against Cu2+ ions assessed as reduction in intrinsic fluorescence of compound at 50 uM incubated for 30 mins using CuSO4 by fluorescence spectrophotometry.
Data set [6] can be described thus: Metal chelating activity against Zn2+ ions assessed as reduction in intrinsic fluorescence of compound at 50 uM incubated for 30 mins using ZnCl2 by fluorescence spectrophotometry.
Data set [7] in a line: Metal chelating activity against Cu2+ ions assessed as compound-Cu2+ complex formation at 50 uM incubated for 30 mins using CuSO4 by UV-Visible spectrophotometry.
Data set [8] can be described thus: Metal chelating activity against Zn2+ ions assessed as compound-Zn2+ complex formation at 50 uM incubated for 30 mins using ZnCl2 by UV-Visible spectrophotometry.
The target of data set [9] is T1, Acetylcholinesterase. Briefly: Inhibition of human AChE assessed as inhibitor dissociation constant for enzyme-substrate-inhibitor complex pre-incubated for 6 mins before ATCI substrate addition and measured after 12 mins by DTNB reagent dependent Ellman's method based Lineweaver-Burk plot analysis.
The target of data set [10] is T1, Acetylcholinesterase. Briefly: Inhibition of human AChE assessed as inhibitor dissociation constant for enzyme-inhibitor complex pre-incubated for 6 mins before ATCI substrate addition and measured after 12 mins by DTNB reagent dependent Ellman's method based Lineweaver-Burk plot analysis.
Data set [11] is described as follows: Metal chelating activity against Fe3+ ions assessed as compound-Fe3+ complex formation at 50 uM incubated for 30 mins using FeCl3 by UV-Visible spectrophotometry.
A short description of data set [12]: Metal chelating activity against Fe2+ ions assessed as compound-Fe2+ complex formation at 50 uM incubated for 30 mins using FeSO4 by UV-Visible spectrophotometry.
Data set [13] is described as follows: Metal chelating activity against Cu2+ ions assessed as 1:1 stoichiometry compound-Cu2+ complex formation at 50 uM incubated for 30 mins using CuSO4 by UV-Visible spectrophotometry.
Compound in data set [14]: O=C(CNCc1cc(F)cc(F)c1)Nc1ccc2nc3n(c(=O)c2c1)CCC3
The data set can be described thus: Inhibition of human AChE assessed as ATCI substrate Vmax at 10 nM pre-incubated for 6 mins before ATCI substrate addition and measured after 12 mins by DTNB reagent dependent Ellman's method based Michaelis-Menten kinetics analysis (reference value: […] deltaA/min).

Compound in data set [15]: O=C(CNCc1cc(F)cc(F)c1)Nc1ccc2nc3n(c(=O)c2c1)CCC3
Briefly: Inhibition of human AChE assessed as ATCI substrate Vmax at 1 nM pre-incubated for 6 mins before ATCI substrate addition and measured after 12 mins by DTNB reagent dependent Ellman's method based Michaelis-Menten kinetics analysis (reference value: […] deltaA/min).

Compound in data set [16]: O=C(CNCc1cc(F)cc(F)c1)Nc1ccc2nc3n(c(=O)c2c1)CCC3
The data set can be described thus: Inhibition of human AChE assessed as ATCI substrate Km at 1 nM pre-incubated for 6 mins before ATCI substrate addition and measured after 12 mins by DTNB reagent dependent Ellman's method based Michaelis-Menten kinetics analysis (reference value: […] mM).

Compound in data set [17]: O=C(CNCc1cc(F)cc(F)c1)Nc1ccc2nc3n(c(=O)c2c1)CCC3
Briefly: Inhibition of human AChE assessed as ATCI substrate Km at 5 nM pre-incubated for 6 mins before ATCI substrate addition and measured after 12 mins by DTNB reagent dependent Ellman's method based Michaelis-Menten kinetics analysis (reference value: […] mM).

Compound in data set [18]: O=C(CNCc1cc(F)cc(F)c1)Nc1ccc2nc3n(c(=O)c2c1)CCC3
Briefly: Inhibition of human AChE assessed as ATCI substrate Vmax at 5 nM pre-incubated for 6 mins before ATCI substrate addition and measured after 12 mins by DTNB reagent dependent Ellman's method based Michaelis-Menten kinetics analysis (reference value: […] deltaA/min).

Compound in data set [19]: O=C(CNCc1cc(F)cc(F)c1)Nc1ccc2nc3n(c(=O)c2c1)CCC3
Briefly: Inhibition of human AChE assessed as ATCI substrate Km at 10 nM pre-incubated for 6 mins before ATCI substrate addition and measured after 12 mins by DTNB reagent dependent Ellman's method based Michaelis-Menten kinetics analysis (reference value: […] mM).

Activity calls are given as the source filed them. The rule behind the calls is not given here.

Chain of Cholinesterase (P06276 whole entry): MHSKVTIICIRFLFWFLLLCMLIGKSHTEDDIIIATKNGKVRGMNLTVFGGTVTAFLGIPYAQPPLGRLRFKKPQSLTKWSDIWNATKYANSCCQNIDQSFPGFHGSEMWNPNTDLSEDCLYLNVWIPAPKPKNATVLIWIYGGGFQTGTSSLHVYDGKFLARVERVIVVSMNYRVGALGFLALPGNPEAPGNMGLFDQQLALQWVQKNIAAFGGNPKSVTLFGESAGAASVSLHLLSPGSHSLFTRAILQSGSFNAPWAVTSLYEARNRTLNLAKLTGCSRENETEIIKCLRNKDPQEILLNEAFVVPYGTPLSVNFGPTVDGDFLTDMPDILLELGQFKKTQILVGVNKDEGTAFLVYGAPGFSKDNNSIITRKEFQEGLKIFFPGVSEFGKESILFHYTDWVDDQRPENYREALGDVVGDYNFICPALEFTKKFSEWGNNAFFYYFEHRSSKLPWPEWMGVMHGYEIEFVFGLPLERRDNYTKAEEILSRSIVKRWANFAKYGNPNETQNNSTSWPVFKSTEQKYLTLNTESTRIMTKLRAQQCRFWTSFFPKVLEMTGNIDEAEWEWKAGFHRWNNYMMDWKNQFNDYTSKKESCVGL

As to `C=CCNCC(=O)Nc1ccc2nc3n(c(=O)c2c1)CCC3`, the IC50 amounted to 16.6 nM in data set [1] and 66.6 nM in data set [2].

On to `CCCCNCC(=O)Nc1ccc2nc3n(c(=O)c2c1)CCC3`, for which the values for the IC50 in [1] and in [2] were 107 nM and 21.2 nM, respectively.

For `O=C(CNCc1ccccc1F)Nc1ccc2nc3n(c(=O)c2c1)CCC3`, the IC50 in [1] was 108 nM; in data set [2] it was 528 nM.

`CCCCCCCCNCC(=O)Nc1ccc2nc3n(c(=O)c2c1)CCC3`: the IC50 in [1] was found to be 45.7 nM; in data set [2] it was 10.6 nM.

With `CC(C)=CCNCC(=O)Nc1ccc2nc3n(c(=O)c2c1)CCC3`, the half-inhibitory concentration (IC50) in data set [1] is 16.3 nM; in data set [2] it was 25.9 nM.

As to `Cc1ccccc1CNCC(=O)Nc1ccc2nc3n(c(=O)c2c1)CCC3`, the results for the concentration for half-maximal inhibition (IC50) in data set [1] and in data set [2] were 107 nM and 119 nM, respectively.

`O=C(CNCc1cc(F)cc(F)c1)Nc1ccc2nc3n(c(=O)c2c1)CCC3`: the result in [3], in data set [4], in [5], in data set [7], in data set [11] and in data set [12] was Active. Moreover, the result in [13] was Active. In addition, the result in data set [6] and in data set [8] was inactive. Also, the Ki in [9] came out at 15.8 nM; in [10] it was 9.85 nM. Also, the IC50 was found to be 2.35 nM in data set [1] and 7.61 nM in data set [2].

Regarding `O=C(CNCCCc1ccccc1)Nc1ccc2nc3n(c(=O)c2c1)CCC3`, the IC50 in data set [1] was determined as 20.7 nM; in data set [2], 4.09 nM.

For the molecule `CCCCCCCCCCCCCCCCNCC(=O)Nc1ccc2nc3n(c(=O)c2c1)CCC3`, the values for the IC50 in [1] and in data set [2] were 4.35 nM and 5.31 nM, respectively.

For `O=C(CNCc1ccccc1)Nc1ccc2nc3n(c(=O)c2c1)CCC3`, the IC50 in data set [1] was determined as 145 nM; in data set [2], 231 nM.

In the case of `C=CCCNCC(=O)Nc1ccc2nc3n(c(=O)c2c1)CCC3`, the IC50 worked out at 81.5 nM in data set [1] and 13.3 nM in data set [2].

Regarding `CCCCCCCCCCCCNCC(=O)Nc1ccc2nc3n(c(=O)c2c1)CCC3`, the IC50 turned out to be 26.8 nM in data set [1] and 36.7 nM in [2].

For the molecule `C#CCNCC(=O)Nc1ccc2nc3n(c(=O)c2c1)CCC3`, the IC50 in data set [1] came out at 12.4 nM; in data set [2], 46.4 nM.

Regarding `CCCCCCNCC(=O)Nc1ccc2nc3n(c(=O)c2c1)CCC3`, the IC50 in data set [1] stood at 10.5 nM; in [2], 25.3 nM.

For `CCCNCC(=O)Nc1ccc2nc3n(c(=O)c2c1)CCC3`, the IC50 was found to be 1190 nM in data set [1] and 310 nM in data set [2].

Consider `O=C(CNCc1ccccc1[N+](=O)[O-])Nc1ccc2nc3n(c(=O)c2c1)CCC3`, for which the IC50 stood at 103 nM in [1] and 30.7 nM in [2].

As for `N#Cc1ccccc1CNCC(=O)Nc1ccc2nc3n(c(=O)c2c1)CCC3`, the IC50 was 29.9 nM in data set [1] and 16.8 nM in data set [2].

`CCNCC(=O)Nc1ccc2nc3n(c(=O)c2c1)CCC3`: the IC50 in data set [1] was 1000 nM; in data set [2], 557 nM.

For `CCCCCCCCCCNCC(=O)Nc1ccc2nc3n(c(=O)c2c1)CCC3`, the results for the IC50 in [1] and in data set [2] were 37.2 nM and 24.1 nM, respectively.

As for `O=c1c2ccccc2nc2n1CCC2` [DEOXYVASICINONE], the figures for the IC50 in [1] and in data set [2] were 45100 nM and 62500 nM, respectively.

B1: Acetylcholinesterase (Homo sapiens), P22303 (protein)
chain: MRPPQCLLHTPSLASPLLLLLLWLLGGGVGAEGREDAELLVTVRGGRLRGIRLKTPGGPVSAFLGIPFAEPPMGPRRFLPPEPKQPWSGVVDATTFQSVCYQYVDTLYPGFEGTEMWNPNRELSEDCLYLNVWTPYPRPTSPTPVLVWIYGGGFYSGASSLDVYDGRFLVQAERTVLVSMNYRVGAFGFLALPGSREAPGNVGLLDQRLALQWVQENVAAFGGDPTSVTLFGESAGAASVGMHLLSPPSRGLFHRAVLQSGAPNGPWATVGMGEARRRATQLAHLVGCPPGGTGGNDTELVACLRTRPAQVLVNHEWHVLPQESVFRFSFVPVVDGDFLSDTPEALINAGDFHGLQVLVGVVKDEGSYFLVYGAPGFSKDNESLISRAEFLAGVRVGVPQVSDLAAEAVVLHYTDWLHPEDPARLREALSDVVGDHNVVCPVAQLAGRLAAQGARVYAYVFEHRASTLSWPLWMGVPHGYEIEFIFGIPLDPSRNYTAEEKIFAQRLMRYWANFARTGDPNEPRDPKAPQWPPYTAGAQQYVSLDLRPLEVRRGLRAQACAFWNRFLPKLLSATDTLDEAERQWKAEFHRWSSYMVHWKNQFDHYSKQDRCSDL
Take B1: the figures for the Vmax in data set [14], in data set [15] and in data set [18] were 0.152 deltaA/min, 0.212 deltaA/min and 0.19 deltaA/min, respectively. In addition, the results for the Michaelis constant (Km) in data set [16], in [17] and in data set [19] were 329 µM, 369 µM and 434 µM, respectively.

These data come from ChEMBL document CHEMBL4190343, “Novel deoxyvasicinone derivatives as potent multitarget-directed ligands for the treatment of Alzheimer's disease: Design, synthesis, and biological evaluation” (Eur J Med Chem, 2017).
